Measurements from article PMC12040169 (PLOS Biology, 2025).

Test: in vitro
Conditions: human, hela cells

Compound | viability at 28.5 h, 10 µM [%]
CS(=O)(=O)c1ccc(-c2ccc3c(c2)OCCN(C2CCN(C(=O)Oc4ccccc4)CC2)C3)cc1 [CBK169259] | 79.9
CS(=O)(=O)c1ccc(-c2ccc3c(c2)CCN(C2CCN(C(=O)Oc4ccccc4)CC2)C3)cc1 [CBK169518] | 90.1

Same assay, conditions: human, hela cells, % viability

Compound | viability at 28.5 h, 10 µM [%]
O=C(CCCC1CCNCC1)Nc1nnc(C2CC2)s1 [CBK169224] | 97.1
CS(=O)(=O)c1ccc(-c2ccc3c(c2)OCCN(C2CCN(C(=O)CC(F)(F)F)CC2)C3)cc1 [CBK169260] | 90.8
CS(=O)(=O)c1ccc(-c2ccc3c(c2)CN(C2CCN(C(=O)c4ccccc4)CC2)CCO3)cc1 [CBK169265] | 103
Cc1nc2c(C(=O)NCCNC(=O)c3cccnc3)ncn2c(C)c1Cc1ccc(F)c(Cl)c1 [CBK169332] | 89.8
CN(C)CCOc1ccc2c(c1)OC1(CCN(C(=O)c3ccc4sc(N)nc4c3)CC1)CC2=O [CBK169380] | 91.4
COc1ccc(-c2ccc3c(c2)OC2(CCN(C(=O)c4cc(OC)c(C)c(OC)c4)CC2)CC3=O)cn1 [CBK169424] | 107
O=C1CC2(CCN(C(=O)c3ccc4cc[nH]c4c3)CC2)Oc2ccc(CN3CCOCC3)cc21 [CBK169469] | 121
Cc1cc(N2CCCN3CCCCCC32)nc(N)n1 (stereo not shown) [CBK169746] | 102
CC(C)(C)OC(=O)NCc1ccc(-c2nnc(CC(=O)O)o2)cc1 [CBK169899D] | 96.5
CNC1CCN(S(=O)(=O)c2sc3ccc(C(C)C)cc3c2C)C1 (stereo not shown) [CBK170067] | 110
COC(=O)c1ccc(-c2cnc(OCC3CCN(C(=O)OC(C)(C)C)CC3)nc2)nc1 [CBK170130] | 101
Cc1cc(NC2CC3CCCC(C2)N3C)nc(N)n1 (stereo not shown) [CBK170333] | 88.4
Cc1c(S(=O)(=O)N2CCN(C3CCN(C)CC3)CC2)sc2ccc(C(C)C)cc12 [CBK170352] | 105
Cc1cc(CNS(=O)(=O)c2sc3ccc(C(C)C)cc3c2C)no1 [CBK170353] | 109
Cc1c(S(=O)(=O)NCCN(C)C)sc2ccc(C(C)C)cc12 [CBK170357] | 90.2
Cc1cc(NC(=O)C(C)OC(=O)C(NC(=O)OC(C)(C)C)c2ccccc2)no1 (stereo not shown) [CBK170398] | 100
COc1cc(C(=O)N2CCC3(CC2)CC(=O)c2cc(-c4ccc(N(C)C)cc4)ccc2O3)cc(OC)c1C [CBK170663] | 108
COc1cc(C(=O)N2CCC3(CC2)CC(=O)c2cc(NC(C)=O)ccc2O3)nc2c(OC)cccc12 [CBK170664] | 122
O=C(OCc1ccccc1)N1CCC(C(=O)N(CCc2ccccc2)Cc2ccccc2)CC1 [CBK171978] | 92.5
CCC(CC)C(=O)N1CCC(CNc2cnc(-c3ccc(S(C)(=O)=O)cc3)cn2)CC1 [CBK172021] | 99.5
CN(C)[C@H]1CCN(C(=O)c2ccc(Nc3cncc(Cl)n3)cn2)C1 [CBK172073] | 88.8

Compound | viability at 28.5 h, 10 µM [%]
Fc1ccc2c(c1)[C@@H](Oc1cncc(NC3CCCNC3)n1)CCO2 (stereo partly shown) [CBK172256G] | 92.6
Cc1cccc2c1OCC[C@@H]2Oc1cncc(N2CCNCC2)n1 [CBK172310G] | 101
C[C@H](Oc1cncc(N2CCNCC2)n1)c1ccccc1Cl [CBK172341G] | 108
O=S1(=O)Cc2ccccc2C(Oc2cncc(N3CCNCC3)n2)C1 (stereo not shown) [CBK172344T] | 91.2
c1ccc2c(c1)CSCC2Oc1cncc(N2CCNCC2)n1 (stereo not shown) [CBK172356T] | 94.9
c1ccc2c(c1)OCC(COc1cncc(N3CCNCC3)n1)O2 (stereo not shown) [CBK172357G] | 101
Cc1ccc(S(=O)(=O)Nc2ccc3c(ccn3CCOC3CCN(C(=O)OC(C)(C)C)CC3)c2)cc1Cl [CBK172991] | 99
O=C(c1ccc(-c2ccc(OCC3CCN(c4ncccn4)CC3)cn2)cc1)N1CCOCC1 [CBK173183] | 91.8
COc1ccccc1-c1nc2ccccn2c1CO [CBK173210] | 113
CCN(CC)C(=O)CCNC(=O)c1ccc2c(c1)COC(C1CCN(C(=O)OC(C)(C)C)CC1)O2 (stereo not shown) [CBK173273] | 92.2
CC(C)(C)OC(=O)N1CCC(C2OCc3cc(-c4ccc(S(C)(=O)=O)cn4)ccc3O2)CC1 (stereo not shown) [CBK173326] | 87.6
CN(Cc1ccc(-c2ccc(CO)cc2)nc1)C1CCN(C(=O)OC(C)(C)C)CC1 [CBK173453] | 81.3
Cn1cc(-c2ccc(OCC3CCN(C(=O)OC(C)(C)C)CC3)cn2)cn1 [CBK173498] | 77.8
C[S+]([O-])c1ccc(-c2cnc(NCC3CCN(C(=O)OC(C)(C)C)CC3)cn2)cc1 (stereo not shown) [CBK173723] | 83.4
CCCNCCc1ccc(NC(=O)Nc2cc(F)cc3c2OCOC3)cc1 [CBK173887T] | 97.8
Cc1cc(COc2nc3ccccc3nc2NC[C@@H]2CCCO2)no1 [CBK174027] | 119
O=C(Nc1ccc(Cl)cc1)NC1(C(=O)NCc2ccncc2)CCCCC1 [CBK174259] | 100
CC(C)(C)OC(=O)N1CCC(NC(=O)c2ccc(-c3ccc(S(C)(=O)=O)cc3)cn2)CC1 [CBK174352] | 84.8
CCN1CCN(c2ccc(-c3ccc(OCC4CCN(C(=O)OC(C)(C)C)CC4)cn3)cn2)CC1 [CBK174505] | 109
COCc1cc(-c2ccc(C(=O)N3CCN(C)CC3)nc2)ccc1OCC1CCN(C(=O)OC(C)(C)C)CC1 [CBK174511] | 84
O=C(NC1CCOCC1)c1n[nH]c2c1CCC2 [CBK174626] | 113

Compound | viability at 28.5 h, 10 µM [%]
CCN1CCC[C@@H]1CNC(=O)c1n[nH]c2c1CCC2 [CBK174628] | 106
COc1cccc(NC(=O)c2ccnc(Cl)c2)c1 [CBK174661] | 104
COc1cccc(NC(=O)c2ccncc2Cl)c1 [CBK174695] | 96.3
Cc1cc(OCC2CCN(C(=O)OC(C)(C)C)CC2)ccc1Br [CBK175091] | 108
CCOC(=O)c1cn[nH]c1N [CBK175217] | 89.4
CCNC(=O)Nc1ccccc1C(=O)NC1CCCCC1 [CBK175266] | 89.6
Cc1csc(NC(=O)C2CC(=O)N(C3CCCC3)C2)n1 (stereo not shown) [CBK175501] | 107
Cc1cnc(NC(=O)C2CC(=O)N(Cc3cccs3)C2)s1 (stereo not shown) [CBK175531] | 90.9
CC(C)(C)c1csc(NC(=O)C2CC(=O)N(C3CCCC3)C2)n1 (stereo not shown) [CBK175544] | 105
O=C(Nc1ncc(Cl)s1)C1CC(=O)N(C2CC2)C1 (stereo not shown) [CBK175551] | 102
COCc1ccc(Nc2ccccc2S(=O)(=O)c2ccccc2)cc1OCC1CCN(C(=O)OC(C)(C)C)CC1 [CBK175577] | 94.6
Cn1c(COc2cncc(Cl)n2)cc2ccccc21 [CBK176002] | 89.9
Clc1cncc(OCCc2c[nH]c3ccccc23)n1 [CBK176027] | 65.2
Clc1ccc(OCCOc2ccccc2)nn1 [CBK176034] | 86.7
O=C(CSc1ccc2ccccc2n1)Nc1ccnc2ccccc12 [CBK176848] | 78.1
COc1ncccc1-c1cccnc1-n1ccnc1 [CBK176872] | 92.6
CSc1cccc(-c2cnccc2-n2ccnc2)c1 [CBK177155] | 92.5
COc1cccc(COc2cncc(N3CCNCC3)n2)c1OC [CBK200003] | 98.6
CN(C)c1cccc(COc2cncc(N3CCNCC3)n2)c1 [CBK200004] | 82.1
COc1cccc(OCCOc2nsnc2N2CCNCC2)c1 [CBK200007] | 110
Cc1ccc(S(=O)(=O)N(C)c2ccnc(N3CCNCC3)n2)cc1 [CBK200009] | 107

Compound | viability at 28.5 h, 10 µM [%]
CCN1CCN(c2ccc(NS(=O)(=O)c3ccccc3)c3ccccc23)CC1 [CBK200011C] | 88.3
COc1ccccc1NS(=O)(=O)c1ccc(N2C[C@@H](C)N[C@@H](C)C2)c2ccccc12 [CBK200012C] | 85.3
CN1CCN(c2nc(NS(=O)(=O)c3cccc(C(F)(F)F)c3)cc3ccccc23)CC1 [CBK200013C] | 98.6
O=S(=O)(Nc1ccc(N2CCNCC2)c2ccccc12)c1ccc(Br)cc1F [CBK200014C] | 95.4
O=S(=O)(c1ccc(C(F)(F)F)cc1)c1ccc2nccc(N3CCNCC3)c2c1 [CBK200016C] | 91.2
CN1CCN(c2ccc3ccn(S(=O)(=O)c4ccccc4Br)c3n2)CC1 [CBK200019C] | 92.5
O=S(=O)(Nc1cc(O[C@@H]2CCNC2)c2occc2c1)c1ccccc1Br [CBK200020C] | 89.6
O=S(=O)(c1ccccc1)c1cn2ccnc2c(N2CCNCC2)n1 [CBK200021T] | 98.3
O=C(O)c1ccc(NS(=O)(=O)c2cccc([N+](=O)[O-])c2)cc1O [CBK200022] | 84.8
CC(C)(C)OC(=O)Nc1cc(Cl)ccc1C(=O)O [CBK200024] | 103
O=S(=O)(Nc1nc(-c2c(F)cccc2Cl)cs1)c1cc(Cl)c(Cl)s1 [CBK200025] | 92.8
Cc1cc(Br)ccc1S(=O)(=O)Nc1nc(-c2c(F)cccc2Cl)cs1 [CBK200026] | 95.6
CCOC(=O)Cc1csc(NS(=O)(=O)c2ccc(Br)cc2C)n1 [CBK200027] | 96.2
O=S(=O)(Nc1nc(-c2ccccc2Cl)cs1)c1sc(Cl)cc1Br [CBK200028] | 103
O=S(=O)(Nc1nc(-c2sccc2Cl)cs1)c1cc(Br)c(Cl)s1 [CBK200030] | 107
COc1ccc(F)cc1-c1ccc(S(=O)(=O)Nc2nc(CC(=O)N3CCOCC3)cs2)cc1 [CBK200031] | 88
O=C(Cc1csc(NS(=O)(=O)c2ccc(-c3cccc([N+](=O)[O-])c3)cc2)n1)N1CCOCC1 [CBK200032] | 110
Cc1cc(Cl)cc(Cl)c1S(=O)(=O)Nc1nc(-c2cccnc2)cs1 [CBK200035] | 105
C=CCN(C(=S)NCc1ccc2c(c1)OCO2)C1CCCCC1 [CBK200037] | 97.9
O=C1c2ccccc2C(=O)c2c1cccc2S(=O)(=O)N1CCN(C(=O)C2CCCO2)CC1 (stereo not shown) [CBK200038] | 40.5
